Here are results for one molecule from PMC9871744 (Cellular and Molecular Gastroenterology and Hepatology, 2022).

The test system of series [1] is Hela-9903 cells. Briefly: Cytotoxicity in the estrogen receptor reporter cells. The class given is cell-based.
Series [2] deals with human androgen receptor (hAR). Nature of the series: Androgen receptor transcriptional activation and inhibition assays. The class given is cell-based.
In series [3] the test system is female Wistar rats. Nature of the series: Toxicity / median lethal dose test, OECD guidelines 425. In kind it is in vivo.
Where [4] appears, read: rats, single oral 2000 mg/kg, means ± SEM (n = 5).

Molecules are shown by their SMILES.

In series [1] (Hela-9903 cells), `CCCCC/C=C\C/C=C\CCCCCCCCP(=O)(OCC)OCC` [NKS-3, diethyl (9Z,12Z)-octadeca-9,12-dien-1-ylphosphonate] yielded a cytotoxic concentrations of no less than 10 µmol/L. Moreover, in series [1] (estrogen receptor assays), the highest non-cytotoxic concentration is 5 µmol/L. Moreover, the “androgenic or antiandrogenic property (conclusion)” value in series [2] was “did not possess androgenic or antiandrogenic property”. In series [3] (setting [4]), this molecule displayed a weight of kidneys of 1.82 ± 0.193 g, a weight of liver of 8.12 ± 0.188 g and a weight of spleen of 0.96 ± 0.12 g. Further, the “toxic effect on liver enzymes and blood lipid parameters” value in series [3] (rats, single oral limit dose 2000 mg/kg body weight, 2 weeks) was “No toxic effect”. Besides, the “evidence of toxicity, preliminary study” value in series [3] (single animal, oral dosages of 5000 mg/kg body weight) is “no evidence of toxicity”.
